The source made the active and inactive calls.
What was measured:
Format in all cases: functional, organism-based
Mus musculus [1] = assay: Therapeutic anti-inflammatory activity in mouse model of experimental autoimmune encephalomyelitis disease assessed as reduction in disease clinical scores at 3 to 10 mg/kg, sc BID for 12 days starting on day 9 after MOG peptide immunization
Mus musculus [2] = assay: Therapeutic anti-inflammatory activity in mouse model of experimental autoimmune encephalomyelitis disease assessed as reduction in disease clinical scores at 3 to 30 mg/kg, po BID for 21 days starting on day 9 after MOG peptide immunization
Mus musculus [3] = assay: Therapeutic anti-inflammatory activity in mouse model of collagen-induced arthritis disease assessed as reduction in cumulative arthritis scores at 10 to 30 mg/kg, sc BID for 3 weeks days starting on day 20 after collagen immunization
Mus musculus [4] = assay: Therapeutic anti-inflammatory activity in mouse model of collagen-induced arthritis disease assessed as effect on ankle thickness at 10 to 30 mg/kg, sc BID for 3 weeks days starting on day 20 after collagen immunization
Mus musculus [5] = assay: Therapeutic anti-inflammatory activity in mouse model of collagen-induced arthritis disease assessed as reduction in cumulative arthritis scores at 10 to 50 mg/kg, po BID for 3 weeks days starting on day 20 after collagen immunization
Mus musculus [6] = assay: Therapeutic anti-inflammatory activity in mouse model of collagen-induced arthritis disease assessed as effect on ankle thickness at 10 to 50 mg/kg, po BID for 3 weeks days starting on day 20 after collagen immunization
Mus musculus [7] = assay: Prophylactic anti-inflammatory activity in mouse model of experimental autoimmune encephalomyelitis disease assessed as reduction in disease clinical scores at 10 mg/kg, po BID for 22 days starting on day (-1) before MOG peptide immunization
Mus musculus [8] = assay: Prophylactic anti-inflammatory activity in mouse model of experimental autoimmune encephalomyelitis disease assessed as reduction in disease clinical scores at 30 mg/kg, po BID for 22 days starting on day (-1) before MOG peptide immunization
Mus musculus [9] = assay: Prophylactic anti-inflammatory activity in mouse model of experimental autoimmune encephalomyelitis disease assessed as reduction in disease clinical scores at 100 mg/kg, po for 22 days (dosed BID on days-1 to 9 and QD on days 10 to 21) starting on day (-1) before MOG peptide immunization
Mus musculus [10] = assay: Therapeutic anti-inflammatory activity in mouse model of experimental autoimmune encephalomyelitis disease assessed as reduction in disease clinical scores at 10 mg/kg, po BID for 14 days starting on day 9 after MOG peptide immunization
Mus musculus [11] = assay: Therapeutic anti-inflammatory activity in mouse model of experimental autoimmune encephalomyelitis disease assessed as reduction in disease clinical scores at 30 mg/kg, po BID for 14 days starting on day 9 after MOG peptide immunization
Mus musculus [12] = assay: Therapeutic anti-inflammatory activity in mouse model of experimental autoimmune encephalomyelitis disease assessed as reduction in disease clinical scores at 100 mg/kg, po for 14 days ( dosed BID on days 9 to 13 and QD on day 14 to 23 starting on day 9 after MOG peptide immunization
Rattus norvegicus [13] = assay: Therapeutic anti-inflammatory activity in rat model of experimental autoimmune encephalomyelitis disease assessed as reduction in disease severity clinical scores at 10 to 50 mg/kg, po BID starting on day 9 after MOG peptide immunization
Mus musculus [14] = assay: Therapeutic anti-inflammatory activity in mouse model of collagen-induced arthritis disease assessed as reduction in cumulative arthritis scores at 10 to 100 mg/kg, po BID for 21 days starting on day 20 after immunization
Mus musculus [15] = assay: Therapeutic anti-inflammatory activity in mouse model of collagen-induced arthritis disease assessed as effect on ankle thickness at 10 to 100 mg/kg, po BID for 21 days starting on day 20 after immunization
Rattus norvegicus [16] = assay: Therapeutic anti-inflammatory activity in rat model of collagen-induced arthritis disease assessed as reduction in cumulative arthritis scores at 10 to 25 mg/kg, po BID for 21 days starting on day 11 after immunization
Rattus norvegicus [17] = assay: Therapeutic anti-inflammatory activity in rat model of collagen-induced arthritis disease assessed as reduction in cumulative arthritis scores at 50 mg/kg, po QD for 21 days starting on day 11 after immunization
Rattus norvegicus [18] = assay: Therapeutic anti-inflammatory activity in rat model of collagen-induced arthritis disease assessed as effect on ankle thickness by measuring water displacement at 10 to 25 mg/kg, po BID for 21 days starting on day 11 after immunization
Rattus norvegicus [19] = assay: Therapeutic anti-inflammatory activity in rat model of collagen-induced arthritis disease assessed as effect on ankle thickness by measuring water displacement at 50 mg/kg, po QD for 21 days starting on day 11 after immunization
Mus musculus [20] = assay: Anti-inflammatory activity in mouse model of concanavalin A-induced hepatitis assessed as reduction in TNFalpha level at 10 to 100 mg/kg, po dosed dosed 16 hrs and 1 hr before and 8 hrs after concanavalin A challenge
Mus musculus [21] = assay: Anti-inflammatory activity in mouse model of concanavalin A-induced hepatitis assessed as reduction in IL6 level at 10 to 100 mg/kg, po dosed dosed 16 hrs and 1 hr before and 8 hrs after concanavalin A challenge
Mus musculus [22] = assay: Anti-inflammatory activity in mouse model of concanavalin A-induced hepatitis assessed as reduction in MCP1 level at 10 to 100 mg/kg, po dosed dosed 16 hrs and 1 hr before and 8 hrs after concanavalin A challenge
Mus musculus [23] = assay: Anti-inflammatory activity in mouse model of concanavalin A-induced hepatitis assessed as effect on IFNgamma level at 10 to 100 mg/kg, po dosed dosed 16 hrs and 1 hr before and 8 hrs after concanavalin A challenge
Mus musculus [24] = assay: Anti-inflammatory activity in mouse model of concanavalin A-induced hepatitis assessed as reduction in ALT level at 10 to 100 mg/kg, po dosed dosed 16 hrs and 1 hr before and 8 hrs after concanavalin A challenge
Mus musculus [25] = assay: Anti-inflammatory activity in mouse model of concanavalin A-induced hepatitis assessed as reduction in AST level at 10 to 100 mg/kg, po dosed dosed 16 hrs and 1 hr before and 8 hrs after concanavalin A challenge
Rattus norvegicus [26] = assay: Therapeutic anti-inflammatory activity in rat model of experimental autoimmune encephalomyelitis disease assessed as reduction in disease severity clinical scores at 0.3 to 10 mg/kg, po QD starting on day 10 after MOG peptide immunization
Mus musculus [27] = assay: Anti-inflammatory activity in mouse model of concanavalin A-induced hepatitis assessed as reduction in TNFalpha level at 1 to 10 mg/kg, po dosed dosed 16 hrs and 1 hr before and 8 hrs after concanavalin A challenge
Mus musculus [28] = assay: Anti-inflammatory activity in mouse model of concanavalin A-induced hepatitis assessed as reduction in IL6 level at 1 to 10 mg/kg, po dosed dosed 16 hrs and 1 hr before and 8 hrs after concanavalin A challenge
Mus musculus [29] = assay: Anti-inflammatory activity in mouse model of concanavalin A-induced hepatitis assessed as reduction in MCP1 level at 1 to 10 mg/kg, po dosed dosed 16 hrs and 1 hr before and 8 hrs after concanavalin A challenge
Mus musculus [30] = assay: Anti-inflammatory activity in mouse model of concanavalin A-induced hepatitis assessed as effect on IFNgamma level at 1 to 10 mg/kg, po dosed dosed 16 hrs and 1 hr before and 8 hrs after concanavalin A challenge
Mus musculus [31] = assay: Anti-inflammatory activity in mouse model of concanavalin A-induced hepatitis assessed as reduction in ALT level at 1 to 10 mg/kg, po dosed dosed 16 hrs and 1 hr before and 8 hrs after concanavalin A challenge
Mus musculus [32] = assay: Anti-inflammatory activity in mouse model of concanavalin A-induced hepatitis assessed as reduction in AST level at 1 to 10 mg/kg, po dosed dosed 16 hrs and 1 hr before and 8 hrs after concanavalin A challenge

Measured: Activity

CN(C1CC1)S(=O)(=O)c1ccc(-c2cnc(N)c(-c3ccc4c(c3)CCNC4=O)n2)cc1
active: Mus musculus [1] Dose-dependent effect | Mus musculus [2] Dose-dependent effect | Mus musculus [3] | Mus musculus [4] | Mus musculus [5] | Mus musculus [6]

CN(C1CC1)S(=O)(=O)c1ccc(-c2cnc(N)c(-c3ccc4c(c3)CCNC4=O)c2)cc1
active: Mus musculus [7] | Mus musculus [8] | Mus musculus [9] | Mus musculus [10] | Mus musculus [11] | Mus musculus [12] | Rattus norvegicus [13] Dose-dependent effect | Mus musculus [14] | Mus musculus [15] | Rattus norvegicus [16] | Rattus norvegicus [17] | Rattus norvegicus [18] | Rattus norvegicus [19] | Mus musculus [20] | Mus musculus [21] | Mus musculus [22] | Mus musculus [23] | Mus musculus [24] | Mus musculus [25]

N#CC1(c2ccc(-c3cnc(N)c(-c4ccc5c(c4)CCNC5=O)n3)cc2)CC1
active: Rattus norvegicus [26] | Mus musculus [27] | Mus musculus [28] | Mus musculus [29] | Mus musculus [30] | Mus musculus [31] | Mus musculus [32]

— ChEMBL document CHEMBL4476879, “MST1 kinase inhibitors and methods of their use” (2013)
